# Source: patent publication US7345082B2, “Phosphinic acids” (Hoffmann-La Roche Inc., priority 2003, dated 2008)
# Molecular target: T1, purified BACE protein (β-secretase) (Homo sapiens, UniProt P56817)
# T1 construct: made in house
# Assay: Competitive Radioligand Binding Assay (RLBA)
# Settings: β-secretase inhibition; displacement of tritiated Compound A from BACE-coated plates, pH 4.1; read-out: IC50 in vitro
# Experimental: Competitive Radioligand Binding Assay (RLBA)
# 96 well microplates (Optiplate Packard) are coated with purified BACE protein (see e.g. GB 2,385,124: Examples 1 and 2) using a concentration of 1 μg/ml in 30 mM sodium citrate buffer adjusted to pH 5.5. The coating is achieved by incubation of 100 μl/well for 1-3 days at 4° C. The plate is then washed with 2×300 μl/well of 10 mM citrate pH 4.1. To each well 100 μl binding buffer (30 mM citrate, 100 mM NaCl, 0.1% BSA, pH 4.1) is dispensed. The test compound is added in 5 μl from a DMSO stock solution or appropriate dilutions. To this the tracer (tritiated Compound A, see e.g. GB 2,385,124: Example 4) is added in 10 µl/well from a 10 μCi/ml stock solution in binding buffer. After incubation for 1.5-2 hours in a humid chamber at ambient temperature the plate is washed with 2×300 μl/well water and flipped on a dry towel. Following the addition of 50 μl/well Micro-Scint20 (Packard) the plate is sealed and vibrated for 5 seconds. The bound radioactivity is counted on a Topcount (Packard). Total binding is typically between 2000 and 10000 cpm/well depending mainly on the purity and concentration of the BACE protein. Non-specific binding as assessed by competition with >1 μM peptidic inhibitor (Bachem # H-4848) is typically between 30 and 300 cpm/well. The IC-50 values are calculated by Microsoft Excel FIT.
# T1 sequence (P56817 46-501): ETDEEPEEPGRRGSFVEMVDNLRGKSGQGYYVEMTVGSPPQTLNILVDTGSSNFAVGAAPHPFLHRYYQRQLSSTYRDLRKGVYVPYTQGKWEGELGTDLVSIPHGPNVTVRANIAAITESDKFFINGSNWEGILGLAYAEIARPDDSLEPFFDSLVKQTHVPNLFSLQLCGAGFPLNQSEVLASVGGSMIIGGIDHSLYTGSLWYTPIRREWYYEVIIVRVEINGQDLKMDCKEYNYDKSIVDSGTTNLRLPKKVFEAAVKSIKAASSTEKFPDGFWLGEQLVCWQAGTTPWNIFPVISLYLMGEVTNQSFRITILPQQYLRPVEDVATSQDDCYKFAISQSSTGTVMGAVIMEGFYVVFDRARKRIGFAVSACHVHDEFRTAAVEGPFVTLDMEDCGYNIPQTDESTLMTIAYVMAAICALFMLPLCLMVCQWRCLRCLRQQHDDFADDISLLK
row,IC50 [nM],SMILES
1,10,"CCCN(CCC)C(=O)c1cccc(C(=O)N[C@@H](Cc2ccccc2)P(=O)(O)CC(C)C(=O)Nc2ccccc2)c1 (mixture of isomers) [Compound I-18, [(R)-1-(3-dipropylcarbamoyl-benzoylamino)-2-phenyl-ethyl]-(2-phenylcarbamoyl-propyl)-phosphinic acid]"
2,40,"CCCN(CCC)C(=O)c1cccc(C(=O)N[C@@H](Cc2ccccc2)P(=O)(O)CC(C)C(=O)NCCC(C)C)c1 (mixture of isomers) [Compound I-37, [(R)-1-(3-dipropylcarbamoyl-benzoylamino)-2-phenyl-ethyl]-[2-(3-methyl-butylcarbamoyl)-propyl]-phosphinic acid]"
3,50,"CCCOc1cc(C(=O)N[C@@H](Cc2ccccc2)P(=O)(O)CC(C)C(=O)Nc2ccccc2)cc(N2CCCC2=O)c1 (stereo partly drawn) [Compound I-5, {(R)-1-[3-(2-oxo-pyrrolidin-1-yl)-5-propoxy-benzoylamino]-2-phenyl-ethyl}-(2-phenylcarbamoyl-propyl)-phosphinic acid]"
4,200,"CCCN(CCC)C(=O)c1cccc(C(=O)NC(Cc2ccccc2)P(=O)(O)CC(C(=O)Nc2ccc(C)cc2)C(C)C)c1 (centres unmarked) [Compound I-14, [1-(3-dipropylcarbamoyl-benzoylamino)-2-phenyl-ethyl]-(3-methyl-2-p-tolylcarbamoyl-butyl)-phosphinic acid]"
5,20,"CCCN(CCC)C(=O)c1cccc(C(=O)N[C@@H](Cc2ccccc2)P(=O)(O)CC(C)C(=O)NC2CCCCC2)c1 (stereo partly drawn) [Compound I-42, (2-cyclohexylcarbamoyl-propyl)-[(R)-1-(3-dipropylcarbamoyl-benzoylamino)-2-phenyl-ethyl]-phosphinic acid]"
